What was measured:
Recombinant human p38α = molecular target: T1, Recombinant human p38α (Homo sapiens, UniProt Q16539); experiment: Fluorescence anisotropy kinase binding assay; conditions: 12 nM p38α, 5 nM fluorescent ligand
T1 construct: GST; made in house
Method: Assay 1: Fluorescence Anisotropy Kinase Binding Assay
The concentration of kinase enzyme should preferably be 2×Kf. The concentration of fluorescent ligand required will depend on the instrumentation used, and the fluorescent and physicochemical properties. The concentration used must be lower than the concentration of kinase enzyme, and preferably less than half the kinase enzyme concentration.
Recombinant human p38α was expressed as a GST-tagged protein. To activate this protein, 3.5 μM unactivated p38α was incubated in 50 mM Tris-HCl pH 7.5, 0.1 mM EGTA, 0.1% 2-mercaptoethanol, 0.1 mM sodium vanadate, 10 mM MgAc, 0.1 mM ATP with 200 nM MBP-MKK6 DD at 30 degrees for 30 mins. Following activation p38α was re-purified and the activity assessed using a standard filter-binding assay.
All components are dissolved in buffer of composition 62.5 mM HEPES, pH 7.5, 1.25 mM CHAPS, 1 mM DTT, 12.5 mM MgCl2 with final concentrations of 12 nM p38α and 5 nM fluorescent ligand. 30 μl of this reaction mixture is added to wells containing 1 μl of various concentrations of test compound (0.28 nM-16.6 μM final) or DMSO vehicle (3% final) in NUNC 384 well black microtitre plate and equilibrated for 30-60 mins at room temperature. Fluorescence anisotropy is read in Molecular Devices Acquest (excitation 485 nm/emission 535 nm).
Definitions: Ki=dissociation constant for inhibitor binding […]

[1] = test system: TNFα production in LPS-stimulated leukocytes (human whole blood); experiment: TNFα production in human whole blood (LPS-stimulated); type: cell-based; conditions: Leukocyte, 1 hr preincubation, LPS 50 ng/ml, 20 hours
Description: Assay 2: TNFα Production in Human Whole Blood
p38 Mitogen-activated protein (MAP) kinase (p38) regulates the biosynthesis of pro-inflammatory cytokines such as TNFα. The potency as an inhibitor of cytokine production can thus be assessed by measuring the effects on TNFα production in LPS-stimulated leukocytes. Carrying the assay out on whole blood rather than isolated leukocytes gives a measure of whole cell potency of the compound in the presence of plasma protein and cells, particularly red blood cells that in vivo are likely to lower circulating free drug concentrations. […] The concentrations of TNF in the original whole blood assay supernatants can then be determined from a standard curve generated using authentic human TNFα.
Heparinised blood drawn from normal volunteers was dispensed (100 μl) into microtitre plate wells containing 0.5 or 1.0 μl of an appropriately diluted compound solution. […] Plasma TNFα content was determined by electrochemiluminescence assay using the IGEN technology. […]
TNF assay plates (MSD: cat L41IB-1) were blocked overnight with 20 μl human serum cytokine diluent (MSD). […] 150 μl 2× read buffer T (MSD Cat R92TC-1) was added to the whole blood plates and 90 μl 2.5× read buffer P (MSD Cat R92PC-1) to the PBMC plates and all plates read in the MSD Sector Imager 6000 electrochemiluminescence reader.

T1 sequence (Q16539 whole entry): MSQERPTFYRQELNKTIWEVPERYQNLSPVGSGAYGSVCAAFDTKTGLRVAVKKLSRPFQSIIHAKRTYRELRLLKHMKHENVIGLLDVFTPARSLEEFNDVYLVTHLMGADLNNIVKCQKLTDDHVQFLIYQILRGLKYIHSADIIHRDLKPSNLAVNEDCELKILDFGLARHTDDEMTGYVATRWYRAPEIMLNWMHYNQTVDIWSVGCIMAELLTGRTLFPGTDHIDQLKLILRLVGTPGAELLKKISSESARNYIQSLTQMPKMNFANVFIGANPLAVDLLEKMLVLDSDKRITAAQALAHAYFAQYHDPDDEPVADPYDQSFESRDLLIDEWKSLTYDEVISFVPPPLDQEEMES

IC50 (Recombinant human p38α): < 0.05 µM
IC50 [1]: < 0.05 µM
Compound: Cc1c(F)cc(C(=O)Nc2ccon2)cc1-c1ccc(C(=O)NCC(C)(C)C)cn1 [Example 1]
